In publication PMC8500670, “A selective WDR5 degrader inhibits acute myeloid leukemia in patient-derived mouse models” (Science translational medicine, 2021):

How the values were obtained:
Assay in all cases: biochemical
[1] = target: SET1b Complex (Homo sapiens, UniProt Q9UPS6); set-up: gene SETD1B; complex; protein methyltransferase inhibition panel, single concentration, duplicate
Procedure: (§1) We next assessed selectivity of MS67 against 22 protein methyltransferases (table S2) and a broad panel of common drug targets including 45 kinases (table S3) and 44 G protein–coupled receptors (GPCR), ion channels, and transporters (table S4). […] We subsequently determined that MS67 had moderate binding affinity (Ki = 1.0 ± 0.8 μM) to Sigma 2 receptor (fig. S10).

[2] = target: T1, H3 (Homo sapiens, UniProt Q9Y5N1); set-up: GPCR, ion channel and transporter panel, per cent inhibition of binding, mean of four
T1 construct: gene HRH3
Procedure: as §1

[3] = target: T2, 5-HT2C (Homo sapiens, UniProt P28335); set-up: GPCR, ion channel and transporter panel, per cent inhibition of binding, mean of four
T2 construct: gene HTR2C
T2 sequence (P28335 whole entry): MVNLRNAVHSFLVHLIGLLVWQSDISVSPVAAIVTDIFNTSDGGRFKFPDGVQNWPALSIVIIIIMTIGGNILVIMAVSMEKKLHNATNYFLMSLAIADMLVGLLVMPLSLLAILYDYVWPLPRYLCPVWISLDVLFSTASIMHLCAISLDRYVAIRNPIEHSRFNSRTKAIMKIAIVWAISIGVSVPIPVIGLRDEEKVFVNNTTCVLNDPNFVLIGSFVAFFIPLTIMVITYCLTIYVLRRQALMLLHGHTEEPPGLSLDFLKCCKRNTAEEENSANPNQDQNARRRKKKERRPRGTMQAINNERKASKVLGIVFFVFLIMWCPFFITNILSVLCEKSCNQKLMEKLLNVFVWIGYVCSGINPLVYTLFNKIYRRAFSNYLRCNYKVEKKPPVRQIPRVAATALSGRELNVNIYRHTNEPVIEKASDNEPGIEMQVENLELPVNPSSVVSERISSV
Procedure: as §1

[4] = target: T3, D3 (Homo sapiens, UniProt P35462); set-up: GPCR, ion channel and transporter panel, per cent inhibition of binding, mean of four
T3 construct: gene DRD3
Procedure: as §1

[5] = target: T4, H4 (Homo sapiens, UniProt Q9H3N8); set-up: GPCR, ion channel and transporter panel, per cent inhibition of binding, mean of four
T4 construct: gene HRH4
Procedure: as §1

[6] = target: T5, M2 (Homo sapiens, UniProt P08172); set-up: GPCR, ion channel and transporter panel, per cent inhibition of binding, mean of four
T5 construct: gene CHRM2
T5 sequence (P08172 whole entry): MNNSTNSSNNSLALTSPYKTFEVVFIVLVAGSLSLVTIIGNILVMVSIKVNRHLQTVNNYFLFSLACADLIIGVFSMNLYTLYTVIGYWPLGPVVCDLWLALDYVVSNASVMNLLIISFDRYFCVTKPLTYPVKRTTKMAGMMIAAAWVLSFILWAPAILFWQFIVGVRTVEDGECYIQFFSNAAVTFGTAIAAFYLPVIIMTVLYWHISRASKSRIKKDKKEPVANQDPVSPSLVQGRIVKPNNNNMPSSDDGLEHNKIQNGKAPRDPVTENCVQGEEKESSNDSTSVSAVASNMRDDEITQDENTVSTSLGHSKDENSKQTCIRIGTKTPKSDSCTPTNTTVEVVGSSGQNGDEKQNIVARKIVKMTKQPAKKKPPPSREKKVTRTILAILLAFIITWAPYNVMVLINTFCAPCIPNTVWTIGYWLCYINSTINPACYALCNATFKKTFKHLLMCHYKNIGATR
Procedure: as §1

[7] = target: T6, 5-HT6 (Homo sapiens, UniProt P50406); set-up: GPCR, ion channel and transporter panel, per cent inhibition of binding, mean of four
T6 construct: gene HTR6
Procedure: as §1

[8] = target: T7, 5-HT1E (Homo sapiens, UniProt P28566); set-up: GPCR, ion channel and transporter panel, per cent inhibition of binding, mean of four
T7 construct: gene HTR1E
Procedure: as §1

[9] = target: T8, D4 (Homo sapiens, UniProt P21917); set-up: GPCR, ion channel and transporter panel, per cent inhibition of binding, mean of four
T8 construct: gene DRD4
T8 sequence (P21917 whole entry): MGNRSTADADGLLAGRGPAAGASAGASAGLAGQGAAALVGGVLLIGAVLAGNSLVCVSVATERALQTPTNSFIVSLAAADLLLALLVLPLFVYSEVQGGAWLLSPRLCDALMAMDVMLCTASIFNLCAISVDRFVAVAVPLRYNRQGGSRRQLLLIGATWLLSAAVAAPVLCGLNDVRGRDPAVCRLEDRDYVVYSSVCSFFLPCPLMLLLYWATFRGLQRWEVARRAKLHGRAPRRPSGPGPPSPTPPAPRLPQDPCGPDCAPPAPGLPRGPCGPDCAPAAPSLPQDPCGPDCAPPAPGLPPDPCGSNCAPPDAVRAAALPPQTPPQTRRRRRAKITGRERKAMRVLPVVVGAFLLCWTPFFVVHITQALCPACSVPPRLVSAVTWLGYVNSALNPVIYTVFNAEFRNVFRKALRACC
Procedure: as §1

[10] = target: T9, KOR (Homo sapiens, UniProt P41145); set-up: GPCR, ion channel and transporter panel, per cent inhibition of binding, mean of four
T9 construct: gene OPRK1
T9 sequence (P41145 whole entry): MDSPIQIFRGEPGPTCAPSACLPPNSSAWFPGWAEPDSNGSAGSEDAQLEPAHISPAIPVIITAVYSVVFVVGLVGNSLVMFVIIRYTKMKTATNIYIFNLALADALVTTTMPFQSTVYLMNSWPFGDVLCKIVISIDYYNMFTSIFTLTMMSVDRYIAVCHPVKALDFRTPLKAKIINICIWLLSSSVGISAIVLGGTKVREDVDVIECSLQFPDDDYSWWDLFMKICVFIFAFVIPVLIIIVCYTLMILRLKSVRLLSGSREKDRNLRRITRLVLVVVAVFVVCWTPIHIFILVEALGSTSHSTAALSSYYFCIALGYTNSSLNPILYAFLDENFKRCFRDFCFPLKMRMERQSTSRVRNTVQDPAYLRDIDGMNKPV
Procedure: as §1

[11] = target: T10, Beta2 (Homo sapiens, UniProt P07550); set-up: GPCR, ion channel and transporter panel, per cent inhibition of binding, mean of four
T10 construct: gene ADRB2
T10 sequence (P07550 whole entry): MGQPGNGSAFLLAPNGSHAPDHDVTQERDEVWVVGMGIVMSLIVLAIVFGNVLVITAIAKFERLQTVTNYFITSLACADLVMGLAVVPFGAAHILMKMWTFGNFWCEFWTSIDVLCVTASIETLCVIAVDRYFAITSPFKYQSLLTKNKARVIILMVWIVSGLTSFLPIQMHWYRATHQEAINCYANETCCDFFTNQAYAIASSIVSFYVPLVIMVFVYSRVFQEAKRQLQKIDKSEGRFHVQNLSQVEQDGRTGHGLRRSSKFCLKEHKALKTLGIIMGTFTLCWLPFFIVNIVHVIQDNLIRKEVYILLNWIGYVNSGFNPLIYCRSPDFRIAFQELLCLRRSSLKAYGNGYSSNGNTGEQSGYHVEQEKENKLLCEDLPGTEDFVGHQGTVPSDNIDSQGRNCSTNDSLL
Procedure: as §1

[12] = target: T11, H1 (Homo sapiens, UniProt P35367); set-up: GPCR, ion channel and transporter panel, per cent inhibition of binding, mean of four
T11 construct: gene HRH1
Procedure: as §1

[13] = target: T12, 5-HT5A (Homo sapiens, UniProt P47898); set-up: GPCR, ion channel and transporter panel, per cent inhibition of binding, mean of four
T12 construct: gene HTR5A
T12 sequence (P47898 whole entry): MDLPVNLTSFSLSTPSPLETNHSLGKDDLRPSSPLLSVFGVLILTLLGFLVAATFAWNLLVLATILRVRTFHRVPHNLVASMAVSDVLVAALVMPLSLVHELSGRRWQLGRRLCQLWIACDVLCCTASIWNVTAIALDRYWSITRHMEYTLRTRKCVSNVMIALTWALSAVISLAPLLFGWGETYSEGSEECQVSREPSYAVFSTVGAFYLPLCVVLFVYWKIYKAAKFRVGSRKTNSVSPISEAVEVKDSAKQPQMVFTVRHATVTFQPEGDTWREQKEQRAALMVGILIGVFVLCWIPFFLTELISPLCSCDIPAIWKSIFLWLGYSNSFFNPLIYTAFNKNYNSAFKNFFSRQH
Procedure: as §1

[14] = target: T13, Sigma 1 (Homo sapiens, UniProt Q99720); set-up: GPCR, ion channel and transporter panel, per cent inhibition of binding, mean of four
T13 construct: gene SIGMAR1
Procedure: as §1

[15] = target: T14, M3 (Homo sapiens, UniProt P20309); set-up: GPCR, ion channel and transporter panel, per cent inhibition of binding, mean of four
T14 construct: gene CHRM3
Procedure: as §1

[16] = target: SETD2 (Homo sapiens, UniProt Q9BYW2); set-up: protein methyltransferase inhibition panel, single concentration, duplicate
SETD2, sequence (Q9BYW2 whole entry): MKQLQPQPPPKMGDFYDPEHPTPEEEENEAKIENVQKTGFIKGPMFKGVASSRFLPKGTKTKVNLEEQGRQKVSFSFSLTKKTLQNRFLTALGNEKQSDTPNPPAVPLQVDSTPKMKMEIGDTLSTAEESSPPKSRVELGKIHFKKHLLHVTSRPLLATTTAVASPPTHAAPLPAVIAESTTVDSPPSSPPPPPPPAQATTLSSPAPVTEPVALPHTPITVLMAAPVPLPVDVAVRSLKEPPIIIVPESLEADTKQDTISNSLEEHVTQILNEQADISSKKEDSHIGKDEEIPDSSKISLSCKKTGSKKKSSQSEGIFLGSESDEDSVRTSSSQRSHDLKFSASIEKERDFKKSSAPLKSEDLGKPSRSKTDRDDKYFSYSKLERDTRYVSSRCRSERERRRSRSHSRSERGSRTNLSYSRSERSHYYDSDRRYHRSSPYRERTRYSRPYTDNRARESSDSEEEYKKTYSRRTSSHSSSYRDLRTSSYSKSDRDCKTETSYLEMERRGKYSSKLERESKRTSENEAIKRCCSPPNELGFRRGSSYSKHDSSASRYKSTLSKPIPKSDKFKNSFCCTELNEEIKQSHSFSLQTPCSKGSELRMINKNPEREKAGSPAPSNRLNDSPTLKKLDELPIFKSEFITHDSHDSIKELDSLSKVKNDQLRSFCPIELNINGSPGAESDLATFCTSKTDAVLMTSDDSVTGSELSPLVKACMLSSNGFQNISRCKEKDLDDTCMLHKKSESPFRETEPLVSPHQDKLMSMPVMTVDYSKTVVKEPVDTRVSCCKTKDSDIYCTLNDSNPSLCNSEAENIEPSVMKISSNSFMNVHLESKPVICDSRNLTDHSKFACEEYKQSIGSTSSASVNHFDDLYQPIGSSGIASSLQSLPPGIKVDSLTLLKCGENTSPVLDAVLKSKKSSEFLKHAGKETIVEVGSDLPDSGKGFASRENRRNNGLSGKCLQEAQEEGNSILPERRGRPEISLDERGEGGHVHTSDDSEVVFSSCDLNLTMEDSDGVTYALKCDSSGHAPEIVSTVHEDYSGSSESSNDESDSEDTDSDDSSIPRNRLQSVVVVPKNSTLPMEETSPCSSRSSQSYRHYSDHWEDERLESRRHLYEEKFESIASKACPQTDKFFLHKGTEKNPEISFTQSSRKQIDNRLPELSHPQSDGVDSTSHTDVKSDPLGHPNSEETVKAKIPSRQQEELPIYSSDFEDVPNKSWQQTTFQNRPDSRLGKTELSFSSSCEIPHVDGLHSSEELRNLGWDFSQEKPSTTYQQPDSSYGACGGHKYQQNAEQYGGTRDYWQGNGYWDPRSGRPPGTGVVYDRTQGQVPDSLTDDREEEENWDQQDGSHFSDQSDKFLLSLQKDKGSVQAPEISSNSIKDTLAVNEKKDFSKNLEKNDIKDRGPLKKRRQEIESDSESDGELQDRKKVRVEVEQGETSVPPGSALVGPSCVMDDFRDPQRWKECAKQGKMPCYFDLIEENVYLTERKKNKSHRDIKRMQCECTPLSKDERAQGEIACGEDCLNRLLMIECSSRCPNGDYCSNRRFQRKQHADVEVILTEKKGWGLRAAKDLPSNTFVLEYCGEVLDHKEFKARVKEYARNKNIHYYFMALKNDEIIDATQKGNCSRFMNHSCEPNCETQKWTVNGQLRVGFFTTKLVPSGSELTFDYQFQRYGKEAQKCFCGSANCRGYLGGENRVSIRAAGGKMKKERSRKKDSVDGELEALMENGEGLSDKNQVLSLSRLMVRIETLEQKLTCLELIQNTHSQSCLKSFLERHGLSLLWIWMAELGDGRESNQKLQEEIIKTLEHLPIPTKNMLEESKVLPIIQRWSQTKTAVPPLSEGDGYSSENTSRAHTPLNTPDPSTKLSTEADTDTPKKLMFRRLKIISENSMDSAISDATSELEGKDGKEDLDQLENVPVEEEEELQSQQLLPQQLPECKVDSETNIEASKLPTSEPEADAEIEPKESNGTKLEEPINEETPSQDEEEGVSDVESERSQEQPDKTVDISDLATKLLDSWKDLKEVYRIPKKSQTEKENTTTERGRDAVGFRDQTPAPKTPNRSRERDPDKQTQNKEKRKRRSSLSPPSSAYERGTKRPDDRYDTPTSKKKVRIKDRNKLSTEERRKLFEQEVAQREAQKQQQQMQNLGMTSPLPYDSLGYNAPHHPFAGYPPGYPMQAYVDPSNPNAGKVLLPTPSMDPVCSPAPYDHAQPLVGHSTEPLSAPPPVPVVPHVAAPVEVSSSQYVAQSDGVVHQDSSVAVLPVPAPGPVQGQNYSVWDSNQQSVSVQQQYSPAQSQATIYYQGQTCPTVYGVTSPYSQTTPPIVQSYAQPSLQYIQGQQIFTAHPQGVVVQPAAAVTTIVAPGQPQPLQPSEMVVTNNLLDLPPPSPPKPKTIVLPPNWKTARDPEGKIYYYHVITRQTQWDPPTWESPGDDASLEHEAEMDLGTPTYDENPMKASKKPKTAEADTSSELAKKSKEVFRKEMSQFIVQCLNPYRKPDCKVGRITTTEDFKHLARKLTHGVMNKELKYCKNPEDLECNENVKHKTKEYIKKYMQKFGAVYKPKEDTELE
Procedure: as §1

[17] = target: DOT1L (Homo sapiens, UniProt Q8TEK3); set-up: protein methyltransferase inhibition panel, single concentration, duplicate
Procedure: as §1

[18] = target: T15, SUV39H1 (Homo sapiens, UniProt O43463); set-up: protein methyltransferase inhibition panel, single concentration, duplicate
T15 sequence (O43463 1-412): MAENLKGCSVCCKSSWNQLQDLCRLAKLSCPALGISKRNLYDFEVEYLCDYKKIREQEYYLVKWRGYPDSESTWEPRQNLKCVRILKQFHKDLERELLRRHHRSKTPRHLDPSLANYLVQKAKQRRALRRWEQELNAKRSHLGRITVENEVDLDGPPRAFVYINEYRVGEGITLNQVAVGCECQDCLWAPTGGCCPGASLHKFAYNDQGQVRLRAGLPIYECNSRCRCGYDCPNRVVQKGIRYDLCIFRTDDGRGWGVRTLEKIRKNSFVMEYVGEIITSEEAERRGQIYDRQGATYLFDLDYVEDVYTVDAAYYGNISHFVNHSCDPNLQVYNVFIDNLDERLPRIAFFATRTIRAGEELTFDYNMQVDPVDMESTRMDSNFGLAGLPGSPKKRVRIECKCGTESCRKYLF
Procedure: as §1

Cc1ncsc1-c1ccc([C@H](C)NC(=O)[C@@H]2C[C@@H](O)CN2C(=O)[C@@H](NC(=O)CNC(=O)c2ccc(F)c(-c3ccc(N4C[C@@H](C)N(C)[C@@H](C)C4)c(NC(=O)c4c[nH]c(=O)cc4C(F)(F)F)c3)c2)C(C)(C)C)cc1 [MS67]
inhibition at 10 µM [1]: < 10%
inhibition at 1 µM [2]: 21.1%
inhibition at 1 µM [3]: 3.09%
inhibition at 1 µM [4]: 22.9%
inhibition at 1 µM [5]: 21.9%
inhibition at 1 µM [6]: 31.1%
inhibition at 1 µM [7]: 13.7%
inhibition at 1 µM [8]: 0.02%
inhibition at 1 µM [9]: 5.81%
inhibition at 1 µM [10]: 26.3%
inhibition at 1 µM [11]: -23%
inhibition at 1 µM [12]: 15.9%
inhibition at 1 µM [13]: 36.6%
inhibition at 1 µM [14]: 48.8%
inhibition at 1 µM [15]: 23.9%
inhibition at 10 µM [16]: < 10%
inhibition at 10 µM [17]: < 10%
inhibition at 10 µM [18]: < 10%
